We go through 14 compounds from US4346087A, “Antibacterial surface active agent containing azaalkenelactam” (priority 1979, dated 1982).

Format in all cases: cell-based
One test deals with Escherichia coli NIHJ. Kind of test: MIC against Escherichia coli NIHJ. The source says: (§1) Below are described the antibacterial activities of the compounds in the compositions according to this invention.
(§2) The testing method complied with the standard method of Japan Sociaty of Chemotherapy.

Test [1] has as its system Staphylococcus aureus FDA 209P. In words: MIC against Staphylococcus aureus FDA 209P.
Excerpt: as §1, §2

For test [2], the system named is Desulfovibrio desulfuricans IFO 13699. Kind of test: MIC against Desulfovibrio desulfuricans.
Excerpt: as §1, §2

The mark [3] stands for this setting: Staphylococcus aureus, FDA209P, 24 h.
[4] abbreviates: Desulfovibrio desulfuricans, IFO13699, 24 h.
Where [5] appears, read: Escherichia coli, Table 2, derivatives having a carboxylate radical, heart infusion agar, 37° C., 24 hours, read-out: MIC.
[6] abbreviates: Escherichia coli, Table 1, azaalkenelactams, heart infusion agar, 37° C., 24 hours, read-out: MIC.

By MIC is commonly meant the lowest concentration that inhibits growth of the organism.

Values after ≈ are worked out from the molar mass of the structure shown. Read-outs that look alike come from different tables or passages of the source.

As to `CCCCCCCCCCCCNCCNCCNCCCN1CCC[N+](CC(=O)[O-])=C(C)CC1=O` [1-dodecylaminoethylaminoethylaminopropyl-4-methyl-1-aza-5-azoniacyclooct-4-en-2-one-5-acetate], the MIC worked out at 100 µg/mL (≈ 196 µM) against Escherichia coli NIHJ (Escherichia coli, 24 h); 12.5 µg/mL (≈ 24.5 µM) in test [1] (setting [3]); 25 µg/mL (≈ 49 µM) in test [2] (setting [4]).

For “4-methylbenzylpoly(2 moles)oxypropyleneoxypropyl-6-methyl-4-aza-1-azoniacyclooct-8-en-5-one-1-acetate”, the MIC in the test on Escherichia coli NIHJ (Table 2, derivatives having a carboxylate radical, heart infusion agar, 37° C., 24 hours) was 800 µg/mL; in test [1], 400 µg/mL; in test [2] it was 25 µg/mL.

`CCCCCCCCCCCCCCCCCCCCC(O)CNCCNCCN1CCC[N+](CC(=O)[O-])=C(C)CC1=O` (stereo not drawn) [1-(2-hydroxy)docosylaminoethylaminoethyl-4-methyl-1-aza-5-azoniacyclooct-4-en-2-one-5-acetate]: the MIC was 50 µg/mL (≈ 82.1 µM) in the test on Escherichia coli NIHJ (Escherichia coli, 24 h); 25 µg/mL (≈ 41.1 µM) in test [1] (setting [3]); 6.25 µg/mL (≈ 10.3 µM) in test [2] (setting [4]).

With `CCCCCCCCCCCCN1CCC[N+](CC(=O)[O-])=C(C)CC1=O` [1-dodecyl-4-methyl-1-aza-5-azoniacyclooct-4-en-2-one-5-acetate], the results for the MIC (in the test on Escherichia coli NIHJ (setting [5]); in test [1] (setting [3]); in test [2] (setting [4])) were 3200 µg/mL (≈ 8730 µM), 100 µg/mL (≈ 273 µM) and 12.5 µg/mL (≈ 34.1 µM), respectively.

As for `CCCCCCCCC=CCCCCCCCCN1CC[N+](CC(=O)[O-])=CCCC1=O` [4-(9-octadecenyl)-4-aza-1-azoniacyclooct-8-en-5-one-1-acetate], the MIC turned out to be 400 µg/mL (≈ 920 µM) in the test on Escherichia coli NIHJ (Escherichia coli, 24 h); 200 µg/mL (≈ 460 µM) in test [1] (setting [3]); 50 µg/mL (≈ 115 µM) in test [2] (setting [4]).

Consider `CCCCCCCCOCCCN1CC[N+](CC(=O)[O-])=C(C)CC1=O` [4-octoxypropyl-7-methyl-1-azonia-4-azacyclohept-7-en-5-one-1-acetate], for which the values for the MIC (in the test on Escherichia coli NIHJ (setting [5]); in test [1] (setting [3]); in test [2] (setting [4])) were 1600 µg/mL (≈ 4510 µM), 50 µg/mL (≈ 141 µM) and 50 µg/mL (≈ 141 µM), respectively.

For the compound `CCCCCCCCCCCCC(O)CNCCN1CC[N+](CC(=O)[O-])=C(C)CC1=O` (stereo not drawn) [4-(2-hydroxytetradecyl)aminoethyl-7-methyl-1-azonia-4-azacyclohept-7-en-5-one-1-acetate], the MIC with Escherichia coli NIHJ (Escherichia coli, 24 h) amounted to 100 µg/mL (≈ 227 µM); in test [1] (setting [3]), 50 µg/mL (≈ 114 µM); in test [2] (setting [4]), 12.5 µg/mL (≈ 28.4 µM).

As to “1-nonylphenylpoly(2 moles)oxyethyleneoxyethyl-3,3-dimethyl-1-aza-5-azoniacyclooct-4-en-2-one-5-acetate”, the MIC was 400 µg/mL with Escherichia coli NIHJ, 100 µg/mL in test [1] and 50 µg/mL in test [2].

With `CCCCCCCCCCCCN1CCCN=C(C)CC1=O` [Example 3, 1-dodecyl-4-methyl-3,6,7,8-tetrahydro-1,5-diazocin-2-one], the minimum inhibitory concentration (MIC) in the test on Escherichia coli NIHJ (setting [6]) is 1600 µg/mL (≈ 5190 µM); in test [1] (setting [3]), 50 µg/mL (≈ 162 µM); in test [2] (setting [4]), 6.25 µg/mL (≈ 20.3 µM).

Regarding `CCCCCCCCCCCCNCCNCCNCCCN1CCCN=C(C)CC1=O` [Example 38, 1-dodecylaminoethylaminoethylaminopropyl-4-methyl-3,6,7,8-tetrahydro-1,5-diazocin-2-one], the minimal inhibitory concentration (MIC) amounted to 50 µg/mL (≈ 111 µM) in the test on Escherichia coli NIHJ (Escherichia coli, 24 h); 12.5 µg/mL (≈ 27.7 µM) in test [1] (setting [3]); 25 µg/mL (≈ 55.3 µM) in test [2] (setting [4]).

Consider `CCCCCCCCCCCCC(O)CN1CCCN=C(C)CC1=O` (stereo not drawn) [Example 27, 1-(2-hydroxy)tetradecyl-4-methyl-3,6,7,8-tetrahydro-1,5-diazocin-2-one], for which the minimal inhibitory concentration (MIC) against Escherichia coli NIHJ (Escherichia coli, 24 h) is 25 µg/mL (≈ 70.9 µM); in test [1] (setting [3]), 12.5 µg/mL (≈ 35.5 µM); in test [2] (Desulfovibrio desulfuricans, IFO13699, Table 1, azaalkenelactams, heart infusion agar, 37° C., 24 hours, read-out: MIC), 6.25 µg/mL (≈ 17.7 µM).

As for “4-octoxy(2-hydroxy)propyl-7-methyl-3,6-dihydro-2H-1,4-diazepin-5-one [Example 31]”, the MIC was determined as 400 µg/mL with Escherichia coli NIHJ, 50 µg/mL in test [1] and 50 µg/mL in test [2].

For the compound `CCCCCCCCc1ccc(OCCOC(C)COC(C)CN2CC[N+](CC(=O)[O-])=C(C)CC2=O)cc1` (stereo not drawn), the MIC stood at 800 µg/mL (≈ 1500 µM) in the test on Escherichia coli NIHJ (setting [5]), 50 µg/mL (≈ 93.9 µM) in test [1] (setting [3]) and 50 µg/mL (≈ 93.9 µM) in test [2] (setting [4]).

Regarding `CCCCCCCCCc1ccc(OCC(O)CNCCNCCNCCN2CCN=C(C)CC2=O)cc1` (stereo not drawn) [Example 32, 4-nonylphenoxy(2-hydroxy)propylaminoethylaminoethylaminoethyl-7-methyl-3,6-dihydro-2H-1,4-diazepin-5-one], the MIC with Escherichia coli NIHJ (setting [6]) turned out to be 800 µg/mL (≈ 1500 µM); in test [1] (setting [3]), 200 µg/mL (≈ 376 µM); in test [2] (setting [4]) it was 25 µg/mL (≈ 47 µM).
